Target: Dual specificity protein phosphatase 1 (Homo sapiens) (UniProt P28562)
Assay: inhibitors of DUSP1 phosphatase activity – biochemical, DiFMUP, fluorescence, selectivity assay for VHR1 inhibitor project, SAR follow-up (AID 2083)
Details: recombinant MKP-1, DiFMUP fluorescence

Sequence of Dual specificity protein phosphatase 1 (Homo sapiens) (P28562 whole entry, looked up): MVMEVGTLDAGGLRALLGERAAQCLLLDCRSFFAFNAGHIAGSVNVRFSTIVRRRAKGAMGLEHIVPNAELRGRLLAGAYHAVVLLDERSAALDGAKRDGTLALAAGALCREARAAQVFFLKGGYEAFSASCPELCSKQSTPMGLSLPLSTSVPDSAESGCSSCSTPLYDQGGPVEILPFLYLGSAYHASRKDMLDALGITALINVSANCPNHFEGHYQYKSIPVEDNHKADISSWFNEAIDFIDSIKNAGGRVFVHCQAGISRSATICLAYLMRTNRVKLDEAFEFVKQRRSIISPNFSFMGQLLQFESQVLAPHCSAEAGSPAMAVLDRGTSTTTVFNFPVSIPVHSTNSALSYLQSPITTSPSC

IC50	Structure (SMILES)
470 nM	O=C1/C(=C/c2cn(-c3ccccc3)nc2-c2ccc(OCc3ccccc3Cl)cc2)SC(=S)N1CCS(=O)(=O)O
780 nM	O=C1/C(=C/c2cn(-c3ccccc3)nc2-c2ccc(OCc3ccccc3)cc2)SC(=S)N1CCS(=O)(=O)O
460 nM	O=C1/C(=C/c2cn(-c3ccccc3)nc2-c2ccc(OCc3ccc(Cl)cc3)cc2)SC(=S)N1CCS(=O)(=O)O
520 nM	O=C1/C(=C/c2cn(-c3ccccc3)nc2-c2ccc(OCc3ccccc3F)cc2)SC(=S)N1CCS(=O)(=O)O
2800 nM	O=C1/C(=C/c2cn(-c3ccccc3)nc2-c2ccc(S(=O)(=O)N3CCCCC3)cc2)SC(=S)N1CCS(=O)(=O)O
